Experimental data published in ChEMBL document CHEMBL1136190, “Synthesis and evaluation of methyl ether derivatives of the vancomycin, teicoplanin, and ristocetin aglycon methyl esters” (2003).
Values after ≈ are worked out from the molar mass of the structure shown.

Columns and labels:
Type in all cases: functional
Enterococcus faecalis [1] = test: Minimum inhibitory concentration against Enterococcus faecalis (VanB, ATCC 51299)
Enterococcus faecalis [2] = test: Minimum inhibitory concentration against Enterococcus faecalis (VanA, BM4166)
Staphylococcus aureus = test: Minimum inhibitory concentration against Staphylococcus aureus (ATCC 25923)

Row | MIC (Enterococcus faecalis [1]) | MIC (Enterococcus faecalis [2]) | MIC (Staphylococcus aureus) | Structure (SMILES)
1 | 12.5 µg/mL (≈ 6.09 µM) | > 100 µg/mL | 1.6 µg/mL (≈ 0.779 µM) | Cc1c(O)cc2cc1Oc1cc(ccc1O)[C@@H](N)C(=O)N[C@H]1C(=O)N[C@@H]2C(=O)N[C@H]2C(=O)N[C@H]3C(=O)N[C@H](C(=O)N[C@@H](C(=O)O)c4cc(O)cc(O[C@H]5O[C@H](CO)[C@@H](O)[C@H](O)[C@@H]5O)c4-c4cc3ccc4O)[C@H](O[C@H]3C[C@@H](N)[C@@H](O)[C@H](C)O3)c3ccc(cc3)Oc3cc2cc(c3O[C@H]2O[C@@H](CO[C@H]3O[C@H](C)[C@@H](O)[C@H](O)[C@@H]3O)[C@H](O)[C@@H](O)[C@@H]2O[C@H]2O[C@H](CO)[C@@H](O)[C@H](O)[C@@H]2O[C@H]2O[C@H](CO)[C@@H](O)[C@@H]2O)Oc2ccc(cc2)[C@H]1O [RISTOCETIN]
2 | 25 µg/mL (≈ 21.3 µM) | > 100 µg/mL | 0.8 µg/mL (≈ 0.681 µM) | COC(=O)[C@H]1NC(=O)[C@H]2NC(=O)[C@H](NC(=O)[C@@H]3NC(=O)[C@H]4NC(=O)[C@H](NC(=O)[C@H](N)c5ccc(O)c(c5)Oc5cc4cc(O)c5C)[C@H](O)c4ccc(cc4)Oc4cc3cc(c4O)Oc3ccc(cc3)[C@H]2O)c2ccc(O)c(c2)-c2c(O)cc(O)cc21
3 | 3.2 µg/mL (≈ 2.66 µM) | > 100 µg/mL | 3.2 µg/mL (≈ 2.66 µM) | COC(=O)C1NC(=O)C2NC(=O)C(NC(=O)C3NC(=O)C4NC(=O)[C@H](NC(=O)[C@H](N)c5ccc(O)c(c5)Oc5cc4cc(O)c5C)[C@H](O)c4ccc(cc4)Oc4cc3cc(c4OC)Oc3ccc(cc3)C2O)c2ccc(O)c(c2)-c2c(OC)cc(O)cc21 (stereo partly specified)
4 | 1.6 µg/mL (≈ 1.34 µM) | 50 µg/mL (≈ 41.8 µM) | 1.6 µg/mL (≈ 1.34 µM) | CN[C@H](CC(C)C)C(=O)NC1C(=O)NC(CC#N)C(=O)NC2C(=O)NC3C(=O)NC(C(=O)NC(C(=O)OC)c4cc(OC)cc(OC)c4-c4cc3ccc4OC)C(O)c3ccc(c(Cl)c3)Oc3cc2cc(c3OC)Oc2ccc(cc2Cl)[C@H]1O (stereo partly specified)

Row | Structure (SMILES) | MIC (Enterococcus faecalis [1]) | MIC (Enterococcus faecalis [2]) | MIC (Staphylococcus aureus)
5 | CN[C@H](CC(C)C)C(=O)N[C@H]1C(=O)N[C@@H](CC(N)=O)C(=O)N[C@H]2C(=O)N[C@H]3C(=O)N[C@H](C(=O)N[C@H](C(=O)O)c4cc(O)cc(O)c4-c4cc3ccc4O)[C@H](O)c3ccc(c(Cl)c3)Oc3cc2cc(c3O)Oc2ccc(cc2Cl)[C@H]1O [VANCOMYCIN AGLYCON] | 25 µg/mL (≈ 21.9 µM) | > 100 µg/mL | 0.8 µg/mL (≈ 0.699 µM)
6 | CN[C@H](CC(C)C)C(=O)N[C@H]1C(=O)N[C@@H](CC(N)=O)C(=O)N[C@H]2C(=O)N[C@H]3C(=O)N[C@H](C(=O)N[C@H](C(=O)O)c4cc(O)cc(O)c4-c4cc3ccc4O)[C@H](O)c3ccc(c(Cl)c3)Oc3cc2cc(c3O[C@@H]2O[C@H](CO)[C@@H](O)[C@H](O)[C@H]2O[C@H]2C[C@](C)(N)[C@H](O)[C@H](C)O2)Oc2ccc(cc2Cl)[C@H]1O [VANCOMYCIN] | 25 µg/mL (≈ 17.3 µM) | > 100 µg/mL | 0.8 µg/mL (≈ 0.552 µM)
7 | CN[C@H](CC(C)C)C(=O)NC1C(=O)NC(CC(N)=O)C(=O)NC2C(=O)NC3C(=O)NC(C(=O)NC(C(=O)OC)c4cc(OC)cc(OC)c4-c4cc3ccc4OC)C(O)c3ccc(c(Cl)c3)Oc3cc2cc(c3OC)Oc2ccc(cc2Cl)[C@H]1O (stereo partly specified) | 1.6 µg/mL (≈ 1.32 µM) | 50 µg/mL (≈ 41.2 µM) | 1.6 µg/mL (≈ 1.32 µM)
